Laboratory results taken from patent US4725683A, “Fluorophenoxyphenoxypropionates and derivatives thereof” (The Dow Chemical Company, priority 1985, dated 1988).

How the values were obtained:
Format in all cases: in vivo
Canarygrass = test: Selective postemergence, track sprayer
Method: (§1) Representative compositions of the present invention were evaluated for the postemergence control of species of plants listed in Table A. In these evaluations, pots of the plant species listed in Table A, grown to a height of about 10 cms, were used. Aqueous spray compositions, containing various amounts of 2-[4-(2-fluoro-4-trifluoromethylphenoxy)-phenoxy]propionic acid methy ester, i.e., 125 ppm, 62.5 ppm, 31.25 ppm, 15.6 ppm, 7.8 ppm and 3.9 ppm, respectively, were applied to separate pots. The spray compositions were made by mixing the active ingredient in acetone to 1/2 the final volume, i.e., twice the final concentration. An equal amount of water was added to the active ingredient/acetone mixture wherein the water contained 0.1 percent by weight of TWEEN® 200 surfactant. The application to the plants was made to the point of run-off and was carried out with conventional spraying equipment. Other pots were sprayed with similar compositions containing no toxicant to serve as controls. Thereafter, the pots were maintained under conditions conducive for plant growth. Two weeks after treatment, the pots were examined for plant growth and evaluated on a scale of 0 to 100 where 0 represents no effect and 100 represents complete kill. The results of the examination of the treated pots are set forth below in Table A.
(§2) To further define the selective postemergence herbicidal characteristics of compounds of the present invention, chemicals were applied to additional species of grasses as listed in Table F. Chemicals evaluated were 2-[4-(4-bromo-2-fluorophenoxy)phenoxy]propionic acid methyl ester and its R isomer. Treatment conditions were similar to those described in Example A except that chemicals were delivered through a track sprayer set to deliver the appropriate dosages in 280.6 L/hectare of water containing 0.1% Tween-20 surfactant.

Tall Fescue = test: Selective postemergence, track sprayer
Method: as §1, §2

Wild Oats = test: Selective postemergence, track sprayer
Method: as §1, §2

Barnyard Grass = test: Postemergent activity
Method in brief: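 Potted plants about 10 cms tall were sprayed to run-off with conventional equipment using aqueous compositions. These were made by dissolving the active ingredient in acetone at twice the final concentration and diluting with an equal volume of water containing 0.1 percent TWEEN® 200 surfactant. Toxicant-free sprays served as controls. After two weeks of growth, injury was scored from 0 (no effect) to 100 (complete kill).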

Crabgrass = test: Postemergent activity
Method in brief: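 Potted crabgrass plants grown to roughly 10 cms tall were sprayed to run-off with aqueous compositions of the test compound, which was first dissolved in acetone at twice the final concentration and then diluted with an equal volume of water containing 0.1 percent by weight TWEEN® 200 surfactant. Pots sprayed without toxicant served as controls. After two weeks under growth-favorable conditions, plant control was scored from 0 (no effect) to 100 (complete kill).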

Johnson Grass = test: Postemergent activity
Method: as §1

cocklebur = test: Postemergent activity; conditions: 125 ppm
Method: as §1

morning glory = test: Postemergent activity; conditions: 125 ppm
Method: as §1

pigweed [1] = test: Postemergent activity; conditions: 125 ppm
Method: as §1

rape [2] = test: Postemergent activity; conditions: 125 ppm
Method: as §1

soybeans = test: Postemergent activity; conditions: 125 ppm
Method: as §1

sugar beets = test: Postemergent activity; conditions: 125 ppm
Method: as §1

velvet leaf [3] = test: Postemergent activity; conditions: 125 ppm
Method: as §1

cotton = test: Preemergent activity; conditions: 0.28 kgs/hectare, seeds
Method: (§3) In a representative operation, 2-[4-(2-fluoro-4-trifluoromethylphenoxy)phenoxy]propionic acid methyl ester, to be utilized in a series of tests, is dissolved in acetone to one half of the final volume (twice the final concentration) to be used and the acetone solution in each case is admixed with an equal volume of water containing 0.1 percent by weight of Tween-20 surface active material (Tween-20 is a trademark of Atlas Chemical Company). The composition, generally in the nature of an emulsion, was employed to treat separate respective seed beds of sandy loam soil of good nutrient content wherein each seed bed contained separate groups of good viable seeds, each group being of one of a known plant species. The various beds were positioned side by side and exposed to substantially identical conditions of temperature and light. Each bed was maintained so as to prevent any interaction with the test compound in different seed beds. Each seed bed was treated with the composition as a spray employing conventional spraying equipment to deposit a predetermined amount of the compound uniformly throughout the surface of the bed. Another seed bed was treated only with the acetone-Tween-20 water mixture with no chemical added to serve as a control. After treatment, the seed beds were maintained for two weeks under greenhouse conditions conducive for good plant growth and watered as necessary. Control refers to the reduction in growth of the test species in the presence of the test chemical relative to the observed growth of the same species in the absence of the test chemical.
(§4) Substantially the same procedures described in Example C were repeated using as the active ingredients

jimson weed = test: Preemergent activity; conditions: 0.28 kgs/hectare, seeds
Method: as §3, §4

pigweed [4] = test: Preemergent activity; conditions: 0.28 kgs/hectare, seeds
Method: as §3, §4

rape [5] = test: Preemergent activity; conditions: 0.28 kgs/hectare, seeds
Method: as §3, §4

soybean = test: Preemergent activity; conditions: 0.28 kgs/hectare, seeds
Method: as §3, §4

sugarbeets = test: Preemergent activity; conditions: 0.28 kgs/hectare, seeds
Method: as §3, §4

velvet leaf [6] = test: Preemergent activity; conditions: 0.28 kgs/hectare, seeds
Method: as §3, §4

yellow nutsedge = test: Preemergent activity; conditions: 0.28 kgs/hectare, seeds
Method: as §3, §4

SMILES: COC(=O)[C@@H](C)Oc1ccc(Oc2ccc(Br)cc2F)cc1 [4-Bromo-(R-Enantiomer), R enantiomer of 2-[4-(4-bromo-2-fluorophenoxy)phenoxy]propionic acid methyl ester]
- Percent Control (Canarygrass; 0.00055 kgs/hectare): 0%
- Percent Control (Canarygrass; 0.0011 kgs/hectare): 0%
- Percent Control (Canarygrass; 0.0023 kgs/hectare): 0%
- Percent Control (Canarygrass; 0.0045 kgs/hectare): 0%
- Percent Control (Canarygrass; 0.009 kgs/hectare): 0%
- Percent Control (Canarygrass; 0.018 kgs/hectare): 0%
- Percent Control (Canarygrass; 0.035 kgs/hectare): 100%
- Percent Control (Canarygrass; 0.07 kgs/hectare): 100%
- Percent Control (Canarygrass; 0.14 kgs/hectare): 100%
- Percent Control (Canarygrass; 0.28 kgs/hectare): 100%
- Percent Control (Tall Fescue; 0.00055 kgs/hectare): 0%
- Percent Control (Tall Fescue; 0.0011 kgs/hectare): 0%
- Percent Control (Tall Fescue; 0.0023 kgs/hectare): 0%
- Percent Control (Tall Fescue; 0.0045 kgs/hectare): 20%
- Percent Control (Tall Fescue; 0.009 kgs/hectare): 50%
- Percent Control (Tall Fescue; 0.018 kgs/hectare): 70%
- Percent Control (Tall Fescue; 0.035 kgs/hectare): 80%
- Percent Control (Tall Fescue; 0.07 kgs/hectare): 90%
- Percent Control (Tall Fescue; 0.14 kgs/hectare): 90%
- Percent Control (Tall Fescue; 0.28 kgs/hectare): 90%
- Percent Control (Wild Oats; 0.00055 kgs/hectare): 0%
- Percent Control (Wild Oats; 0.0011 kgs/hectare): 0%
- Percent Control (Wild Oats; 0.0023 kgs/hectare): 0%
- Percent Control (Wild Oats; 0.0045 kgs/hectare): 0%
- Percent Control (Wild Oats; 0.009 kgs/hectare): 20%
- Percent Control (Wild Oats; 0.018 kgs/hectare): 20%
- Percent Control (Wild Oats; 0.035 kgs/hectare): 40%
- Percent Control (Wild Oats; 0.07 kgs/hectare): 70%
- Percent Control (Wild Oats; 0.14 kgs/hectare): 70%
- Percent Control (Wild Oats; 0.28 kgs/hectare): 95%

SMILES: COC(=O)C(C)Oc1ccc(Oc2ccc(C(F)(F)F)cc2F)cc1 (centres unmarked) [2-[4-(2-fluoro-4-trifluoromethylphenoxy)phenoxy]propionic acid methyl ester]
- % Control (Barnyard Grass; 3.9 ppm): 50%
- % Control (Barnyard Grass; 7.8 ppm): 100%
- % Control (Barnyard Grass; 15.6 ppm): 100%
- % Control (Barnyard Grass; 31.25 ppm): 100%
- % Control (Barnyard Grass; 62.5 ppm): 100%
- % Control (Barnyard Grass; 125 ppm): 100%
- % Control (Crabgrass; 3.9 ppm): 90%
- % Control (Crabgrass; 7.8 ppm): 100%
- % Control (Crabgrass; 15.6 ppm): 100%
- % Control (Crabgrass; 31.25 ppm): 100%
- % Control (Crabgrass; 62.5 ppm): 100%
- % Control (Crabgrass; 125 ppm): 100%
- % Control (Johnson Grass; 3.9 ppm): 60%
- % Control (Johnson Grass; 7.8 ppm): 100%
- % Control (Johnson Grass; 15.6 ppm): 100%
- % Control (Johnson Grass; 31.25 ppm): 100%
- % Control (Johnson Grass; 62.5 ppm): 100%
- % Control (Johnson Grass; 125 ppm): 100%
- phytotoxic effect (cocklebur): inactive
- phytotoxic effect (morning glory): inactive
- phytotoxic effect (pigweed [1]): inactive
- phytotoxic effect (rape [2]): inactive
- phytotoxic effect (soybeans): inactive
- phytotoxic effect (sugar beets): inactive
- phytotoxic effect (velvet leaf [3]): inactive
- phytotoxic effect (cotton): inactive
- phytotoxic effect (jimson weed): inactive
- phytotoxic effect (pigweed [4]): inactive
- phytotoxic effect (rape [5]): inactive
- phytotoxic effect (soybean): inactive
- phytotoxic effect (sugarbeets): inactive
- phytotoxic effect (velvet leaf [6]): inactive
- phytotoxic effect (yellow nutsedge): inactive

SMILES: COC(=O)C(C)Oc1ccc(Oc2ccc(Br)cc2F)cc1 (racemic) [Example 4-Bromo-, 2-[4-(4-bromo-2-fluorophenoxy)phenoxy]propionic acid methyl ester]
- Percent Control (Canarygrass; 0.0011 kgs/hectare): 0%
- Percent Control (Canarygrass; 0.0023 kgs/hectare): 0%
- Percent Control (Canarygrass; 0.0045 kgs/hectare): 0%
- Percent Control (Canarygrass; 0.009 kgs/hectare): 0%
- Percent Control (Canarygrass; 0.035 kgs/hectare): 50%
- Percent Control (Canarygrass; 0.07 kgs/hectare): 100%
- Percent Control (Canarygrass; 0.14 kgs/hectare): 100%
- Percent Control (Canarygrass; 0.28 kgs/hectare): 100%
- Percent Control (Canarygrass; 0.56 kgs/hectare): 100%
- Percent Control (Tall Fescue; 0.0011 kgs/hectare): 0%
- Percent Control (Tall Fescue; 0.0023 kgs/hectare): 10%
- Percent Control (Tall Fescue; 0.0045 kgs/hectare): 20%
- Percent Control (Tall Fescue; 0.009 kgs/hectare): 20%
- Percent Control (Tall Fescue; 0.035 kgs/hectare): 60%
- Percent Control (Tall Fescue; 0.14 kgs/hectare): 90%
- Percent Control (Tall Fescue; 0.28 kgs/hectare): 95%
- Percent Control (Tall Fescue; 0.56 kgs/hectare): 95%
- Percent Control (Wild Oats; 0.0011 kgs/hectare): 0%
- Percent Control (Wild Oats; 0.0023 kgs/hectare): 0%
- Percent Control (Wild Oats; 0.0045 kgs/hectare): 0%
- Percent Control (Wild Oats; 0.009 kgs/hectare): 0%
- Percent Control (Wild Oats; 0.035 kgs/hectare): 40%
- Percent Control (Wild Oats; 0.07 kgs/hectare): 40%
- Percent Control (Wild Oats; 0.14 kgs/hectare): 70%
- Percent Control (Wild Oats; 0.28 kgs/hectare): 90%
- Percent Control (Wild Oats; 0.56 kgs/hectare): 100%
